Test results: patent publication US20240025906A1 (NEURON23, INC., priority 2022, published 2024)
pIC50, pKd: −log10 of the molar value. Counter-ions that a name gives are not always drawn. Like-named read-outs stand apart in the source and are kept apart here.

Tests used:
TYK2 JH2 = molecular target: T1, TYK2 JH2 (Homo sapiens, UniProt P29597); test: TYK2 JH2 binding assay (KINOMEscan KdELECT competitive binding); settings: TYK2 JH2 domain
T1 construct: purchased DiscoverX (KINOMEscan KdELECT service); host or cells: E. coli BL21-derived (T7 phage display) or HEK-293
Procedure, shortened: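 Test compounds were titrated in 11 three-fold steps against JH2 fragment captured on ligand-loaded magnetic beads, with 1 h incubation at room temperature and DMSO at 0.9%. Eluted kinase was quantified by qPCR, and Kd was fitted from the dose series.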

[1] = tested on: JAK1/TYK2 pSTAT5 (Tyr694/699) in THP-1 cell line; test: IFNa-stimulated JAK1/TYK2 pSTAT5 (Tyr694/699) inhibition cellular assay, AlphaLISA; assay type: cell-based; settings: Homo sapiens, THP-1 cells, AlphaLISA (Assay B)
Procedure, shortened: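 THP-1 cells (2e4/well in HBSS) were preincubated with compound (8 points, 6-fold steps from 10000 nM final) for 1 h at 37 °C, then stimulated with IFNa (added at 100 ng/mL) for 30 min. Lysate pSTAT5 was read by AlphaLISA at 615 nm. IC50 came from a 4-parameter fit with bottom 0 and Hill −1.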

[2] = KINOMEscan KdELECT (Assay A), read-out: Biochemical TYK2_DiscoverX_JH2_BND_Kd
[3] = IFNa-stimulated pSTAT5 (Tyr694/699), read-out: Cellular_THP1_IFNa-pSTATS_TYK2
[4] = DiscoverX KINOMEscan KdELECT (Assay A), read-out: Biochemical TYK2_DiscoverX_JH2_BND_Kd
[5] = IFNa-stimulated, read-out: Cellular_THP1_IFNa-pSTATS_TYK2
[6] = KINOMEscan KdELECT (Assay A), read-out: Biochemical TYK2_JH2_Kd
[7] = IFNa-stimulated, read-out: Cellular THP1_IFNa-pSTATS_IC50

T1 sequence (P29597 589-875 limits assumed): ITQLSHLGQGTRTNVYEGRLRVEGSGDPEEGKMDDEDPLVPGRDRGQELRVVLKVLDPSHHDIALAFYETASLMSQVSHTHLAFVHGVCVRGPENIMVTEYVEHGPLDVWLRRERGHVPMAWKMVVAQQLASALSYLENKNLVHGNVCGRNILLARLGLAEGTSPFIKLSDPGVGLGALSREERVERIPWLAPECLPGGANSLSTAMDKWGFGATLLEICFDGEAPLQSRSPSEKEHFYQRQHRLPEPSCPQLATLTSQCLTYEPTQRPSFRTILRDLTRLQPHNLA

| SMILES | pKd (TYK2 JH2; [2]) | pKd (TYK2 JH2; [4]) | pIC50 [1, 5] | also measured |
| --- | --- | --- | --- | --- |
| CNc1ncc(-c2nc3cc(OC[C@@H](C)OC)ccc3o2)c2cc(NC(=O)C3CC3)ncc12 [Example 241, (R)—N-(5-(5-(2-methoxypropoxy)benzo[d]oxazol-2-yl)-8-(methylamino)-2,7-naphthyridin-3-yl)cyclopropanecarboxamide] | – | ≥ 7.00 | ≥ 6.30 | – |
| CNc1ncc(N2CCCC2)c2cc(NC(=O)C3CC3)ncc12 [Example 55, N-(8-(methylamino)-5-(pyrrolidin-1-yl)-2,7-naphthyridin-3-yl)cyclopropanecarboxamide] | – | – | – | pKd (TYK2 JH2; [6]): ≥ 7.00; pIC50 [1, 7]: < 6.30 |
| CNc1ncc(-c2cnn(CC(F)(F)F)c2)c2cc(NC(=O)C3CC3)ncc12 [Example 38, N-(8-(methylamino)-5-(1-(2,2,2-trifluoroethyl)-1H-pyrazol-4-yl)-2,7-naphthyridin-3-yl)cyclopropanecarboxamide] | – | – | – | pKd (TYK2 JH2; [6]): ≥ 7.00; pIC50 [1, 7]: < 6.30 |
| CNc1ncc(-c2nc3ccc(N4CCO[C@H](C(F)(F)F)C4)cn3n2)c2cc(NC(=O)C3CC3)ncc12 [Example 481, (S)-N-(8-(methylamino)-5-(6-(2-(trifluoromethyl)morpholino)-[1,2,4]triazolo[1,5-a]pyridin-2-yl)-2,7-naphthyridin-3-yl)cyclopropanecarboxamide] | – | ≥ 7.00 | ≥ 6.30 | – |
| C[C@H]1CN(c2ccc3oc(-c4cnc(N)c5cnc(NC(=O)C6CC6)cc45)nc3c2)CCO1 [Example 368, (S)—N-(8-amino-5-(5-(2-methylmorpholino)benzo[d]oxazol-2-yl)-2,7-naphthyridin-3-yl)cyclopropanecarboxamide] | – | ≥ 7.00 | ≥ 6.30 | – |
| CNc1ncc(-c2nc3cc(OCC(C)(C)N4CCOCC4)ccc3o2)c2cc(NC(=O)C3CC3)ncc12 [Example 352, N-(5-(5-(2-methyl-2-morpholinopropoxy)benzo[d]oxazol-2-yl)-8-(methylamino)-2,7-naphthyridin-3-yl)cyclopropanecarboxamide] | – | ≥ 7.00 | ≥ 6.30 | – |
| CNc1ncc(C#Cc2ccc3c(c2)CCNC3)c2cc(NC(=O)C3CC3)ncc12 [Example 956, N-(8-(methylamino)-5-((1,2,3,4-tetrahydroisoquinolin-6-yl)ethynyl)-2,7-naphthyridin-3-yl)cyclopropanecarboxamide] | ≥ 7.00 | – | ≥ 6.30 | – |
| CNc1ncc(-c2nc3cc(OCC(C)(C)C#N)ccc3o2)c2cc(NC(=O)C3CC3)ncc12 [Example 236, N-(5-(5-(2-cyano-2-methylpropoxy)benzo[d]oxazol-2-yl)-8-(methylamino)-2,7-naphthyridin-3-yl)cyclopropanecarboxamide] | – | ≥ 7.00 | ≥ 6.30 | – |
| CNc1ncc(C#Cc2sccc2CO)c2cc(NC(=O)C3CC3)ncc12 [Example 960, N-(5-((3-(hydroxymethyl)thiophen-2-yl)ethynyl)-8-(methylamino)-2,7-naphthyridin-3-yl)cyclopropanecarboxamide] | ≥ 7.00 | – | ≥ 6.30 | – |
| CNc1ncc(C#Cc2ccc(OC3CN(C(C)=O)C3)cc2)c2cc(NC(=O)[C@@H]3C[C@@H]3C(F)F)ncc12 (single isomer, unassigned) [Example 777] | ≥ 7.00 | – | ≥ 6.30 | – |
| CNc1ncc(-c2nc3cc(N4CCO[C@H](C)C4)ccc3o2)c2cc(NC(=O)C3CC3)ncc12 [Example 302, (R)-N-(8-(methylamino)-5-(5-(2-methylmorpholino)benzo[d]oxazol-2-yl)-2,7-naphthyridin-3-yl)cyclopropanecarboxamide] | – | ≥ 7.00 | ≥ 6.30 | – |
| CNc1ncc(-c2nc3ccc(N4CC(F)(F)C4)cn3n2)c2cc(NC(=O)C3CC3)ncc12 [Example 472, N-(5-(6-(3,3-difluoroazetidin-1-yl)-[1,2,4]triazolo[1,5-a]pyridin-2-yl)-8-(methylamino)-2,7-naphthyridin-3-yl)cyclopropanecarboxamide] | – | ≥ 7.00 | ≥ 6.30 | – |
| CCc1cnc(NC)c2cnc(NC(=O)C3CC3)cc12 [Example 72, N-(5-ethyl-8-(methylamino)-2,7-naphthyridin-3-yl)cyclopropanecarboxamide] | – | – | – | pKd (TYK2 JH2; [6]): ≥ 7.00; pIC50 [1, 7]: < 6.30 |
| CNc1ncc(-c2nc3ccc(N4CCOC(COC)C4)cn3n2)c2cc(NC(=O)C3CC3)ncc12 (stereo not shown) [Example 1022, N-(5-(6-(2-(methoxymethyl)morpholino)-[1,2,4]triazolo[1,5-a]pyridin-2-yl)-8-(methylamino)-2,7-naphthyridin-3-yl)cyclopropanecarboxamide] | ≥ 7.00 | – | – | pIC50 [1, 3]: ≥ 6.30 |
| [2H]C([2H])([2H])Nc1ncc(-c2nc3ccccc3o2)c2cc(NC(=O)C3CC3F)ncc12 (racemic) [Example 433, N-(5-(benzo[d]oxazol-2-yl)-8-((methyl-d3)amino)-2,7-naphthyridin-3-yl)-2-fluorocyclopropane-1-carboxamide] | – | ≥ 7.00 | ≥ 6.30 | – |
| CNc1ncc(-c2nc3cc(N4CCOCC4)ccc3o2)c2cc(NC(=O)[C@@H]3C[C@@H]3C(F)F)ncc12 (single isomer, unassigned) [Example 1069] | ≥ 7.00 | – | – | pIC50 [1, 3]: ≥ 6.30 |
| CNc1ncc(C#Cc2ccccc2)c2cc(NC(=O)C3CC3)ncc12 [Example 137, N-(8-(methylamino)-5-(phenylethynyl)-2,7-naphthyridin-3-yl)cyclopropanecarboxamide] | – | – | – | pKd (TYK2 JH2; [6]): ≥ 7.00; pIC50 [1, 7]: ≥ 6.30 |
| CNc1ncc(-c2nc3nc(C)ccc3o2)c2cc(NC(=O)C3CC3)ncc12 [Example 460, N-(8-(methylamino)-5-(5-methyloxazolo[4,5-b]pyridin-2-yl)-2,7-naphthyridin-3-yl)cyclopropanecarboxamide] | – | ≥ 7.00 | ≥ 6.30 | – |

Further lines, with some results ahead:

| pKd (TYK2 JH2; [2]) | pKd (TYK2 JH2; [4]) | pIC50 [1, 5] | SMILES | also measured |
| --- | --- | --- | --- | --- |
| ≥ 7.00 | – | – | CNc1ncc(-c2nc3c(F)cc(N4CCOCC4)cn3n2)c2cc(NC(=O)C3CC3)ncc12 [Example 1036] | pIC50 [1, 3]: ≥ 6.30 |
| – | ≥ 7.00 | ≥ 6.30 | CNc1ncc(-c2nc3cc(CCC#N)ccc3o2)c2cc(NC(=O)C3CC3)ncc12 [Example 344, N-(5-(5-(2-cyanoethyl)benzo[d]oxazol-2-yl)-8-(methylamino)-2,7-naphthyridin-3-yl)cyclopropanecarboxamide] | – |
| ≥ 7.00 | – | – | CNc1ncc(-c2nc3ccc(N4CCO[C@@H](C)C4)cn3n2)c2cc(NC(=O)C3CC3(C)C)ncc12 (stereo partly drawn) [Example 1080, 2,2-dimethyl-N-(8-(methylamino)-5-(6-((S)-2-methylmorpholino)-[1,2,4]triazolo[1,5-a]pyridin-2-yl)-2,7-naphthyridin-3-yl)cyclopropane-1-carboxamide] | pIC50 [1, 3]: ≥ 6.30 |
| ≥ 7.00 | – | < 6.30 | CNc1ncc(-c2nc3n(n2)CCC3)c2cc(NC(=O)C3CC3)ncc12 [Example 853, N-(5-(6,7-dihydro-5H-pyrrolo[1,2-b][1,2,4]triazol-2-yl)-8-(methylamino)-2,7-naphthyridin-3-yl)cyclopropanecarboxamide formate] | – |
| ≥ 7.00 | – | ≥ 6.30 | CNc1ncc(C#Cc2ccc(O)c(C#N)c2)c2cc(NC(=O)C3CC3)ncc12 [Example 608, N-(5-((3-cyano-4-hydroxyphenyl)ethynyl)-8-(methylamino)-2,7-naphthyridin-3-yl)cyclopropanecarboxamide] | – |
| – | ≥ 7.00 | ≥ 6.30 | CNc1ncc(-c2nc3cc(N4CCOCC4)ccc3o2)c2cc(NC(=O)[C@@H]3CC3(F)F)ncc12 [Example 421, (S)-2,2-difluoro-N-(8-(methylamino)-5-(5-morpholinobenzo[d]oxazol-2-yl)-2,7-naphthyridin-3-yl)cyclopropane-1-carboxamide] | – |
| ≥ 7.00 | – | ≥ 6.30 | CNc1ncc(C#Cc2ccc(OC(C)CC3COC3)cc2)c2cc(NC(=O)C3CC3)ncc12 (stereo not shown) [Example 713, N-(8-(methylamino)-5-((4-((1-(oxetan-3-yl)propan-2-yl)oxy)phenyl)ethynyl)-2,7-naphthyridin-3-yl)cyclopropanecarboxamide] | – |
| – | ≥ 7.00 | ≥ 6.30 | CNc1ncc(-c2nc3cc(CC(F)(F)F)ccc3o2)c2cc(NC(=O)C3CC3)ncc12 [Example 255, N-(8-(methylamino)-5-(5-(2,2,2-trifluoroethyl)benzo[d]oxazol-2-yl)-2,7-naphthyridin-3-yl)cyclopropanecarboxamide] | – |
| ≥ 7.00 | – | ≥ 6.30 | CNc1ncc(C#Cc2ccc(-n3cccn3)cc2)c2cc(NC(=O)C3CC3)ncc12 [Example 806, N-(5-((4-(1H-pyrazol-1-yl)phenyl)ethynyl)-8-(methylamino)-2,7-naphthyridin-3-yl)cyclopropanecarboxamide] | – |
| – | ≥ 7.00 | ≥ 6.30 | CNc1ncc(-c2nc3cc(N4CCOCC4)ccc3o2)c2cc(NC(=O)C3CC3)ncc12 [Example 345, N-(8-(methylamino)-5-(5-morpholinobenzo[d]oxazol-2-yl)-2,7-naphthyridin-3-yl)cyclopropanecarboxamide] | – |
| – | ≥ 7.00 | ≥ 6.30 | CNc1ncc(-c2nc3cccc(COC)c3o2)c2cc(NC(=O)C3CC3)ncc12 [Example 267, N-(5-(7-(methoxymethyl)benzo[d]oxazol-2-yl)-8-(methylamino)-2,7-naphthyridin-3-yl)cyclopropanecarboxamide] | – |
